# Experimental data published in patent publication US11033538B2, “Dosing regimens for the treatment of lysosomal storage diseases using pharmacological chaperones” (Amicus Therapeutics, Inc., priority 2007, dated 2021).
# Changes are numbered by the printed parent chain. Where two headings read alike, the source gives them in different places.
# Key:
# [1] = Phase 1 multiple-dose study of IFG in healthy subjects, plasma pharmacokinetics; assay type: in vivo, human; settings: for Cmax / half-life / Tmax: human, plasma
# Description: (§1) Blood samples were collected for pharmacokinetic analysis before the initial drug administration on Day 1, before the 5th, 6th and 7th doses (on Days 5, 6 and 7) (for Cmin determination), and at the following times after the 1st (Day 1) and 7th (Day 7) doses: 0.5, 1, 1.5, 2, 3, 4, 5, 6, 8, 10, 12, 15, 18, and 24 hours. […] In addition, blood samples were collected for pharmacodynamic measurements, i.e., analysis of WBC GCase levels, before dosing on Day 1, Day 3, Day 5, and Day 7, and at return visits on Day 9, Day 14 and Day 21.
# [2] = target: T1, GCase (Homo sapiens, UniProt P04062); assay: WBC GCase levels in healthy subjects receiving IFG (Phase 1 multiple-dose study); assay type: in vivo
# T1 construct: endogenous in cells; host or cells: white blood cells of healthy subjects; healthy human skin fibroblasts
# T1 sequence (P04062 40-536): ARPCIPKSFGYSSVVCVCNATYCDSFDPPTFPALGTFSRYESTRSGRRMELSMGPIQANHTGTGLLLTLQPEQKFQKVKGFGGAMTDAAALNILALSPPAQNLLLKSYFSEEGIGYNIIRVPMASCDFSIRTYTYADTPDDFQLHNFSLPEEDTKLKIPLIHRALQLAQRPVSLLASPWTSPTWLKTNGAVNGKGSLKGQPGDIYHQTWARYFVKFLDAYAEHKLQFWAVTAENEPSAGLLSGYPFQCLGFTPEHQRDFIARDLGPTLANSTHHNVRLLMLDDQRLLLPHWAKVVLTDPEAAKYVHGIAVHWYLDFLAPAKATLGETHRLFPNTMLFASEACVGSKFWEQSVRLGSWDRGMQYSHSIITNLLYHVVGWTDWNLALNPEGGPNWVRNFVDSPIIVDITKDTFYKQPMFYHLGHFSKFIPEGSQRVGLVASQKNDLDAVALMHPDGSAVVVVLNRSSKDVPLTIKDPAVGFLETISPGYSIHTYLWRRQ
# Description: as §1
# [3] = system: GCase; assay: GCase activity in Gaucher patient-derived fibroblasts, lymphoblasts and macrophages after IFG for 5 days; assay type: cell-based, human; settings: lymphoblast and macrophages
# Excerpt: FIGS. 4A, 4B, and 4C. […] FIG. 4A depicts GCase activity in fibroblasts; FIG. 4B depicts GCase activity in lymphoblasts; and FIG. 4C depicts GCase activity in macrophages.
# [4] = system: rats; assay: Nonclinical toxicology studies of IFG, rats; assay type: in vivo
# Excerpt: (§2) In the lysosome, when the pharmacological chaperone dissociates from the enzyme, the enzyme can perform its normal function, which is to catalyze the breakdown of glucosylceramide (GlcCer), the GCase substrate.
# [5] = system: monkeys; assay: Nonclinical toxicology studies of IFG, monkeys; assay type: in vivo
# Excerpt: as §2
# [6] = target: T2, N370S GCase (Homo sapiens, UniProt P04062, N409S); assay: Expected N370S GCase accumulation parameters estimated from wild-type PK/PD
# T2 sequence (P04062 40-536 N409S): T1 sequence (P04062 40-536) with N370S
# Excerpt: For example, the most prevalent mutation in Gaucher disease is N370S. […] Accordingly, the rate of N370S turnover and the dose that will yield the maximum rate of GCase accumulation, can be estimated based on the differences in PK and PD parameters as compared with the wild-type enzyme: […]
# [7] = system: GCase; assay: GCase levels and trafficking in vitro with IFG (fibroblasts of GD patients); assay type: cell-based, human
# Excerpt: as §2
# [8] = system: GCase; assay: IFG in a mouse model of GD; assay type: in vivo
# Excerpt: as §2
# [9] = Example 10, pharmacokinetic/tissue distribution of isofagomine in rats; assay type: in vivo
# Description: A single dose of 600 mg/kg of isofagomine was administered to rats via PO gavage. The concentration of isofagomine (μM) in plasma, liver, spleen and brain tissue was ascertained at regular time intervals at dosing (t=0) through 48 hours after dosing.
# [10] = Clinical safety and tolerability of 1-Deoxynorjirimycin, single and repeat doses; assay type: in vivo, human
# [11] = system: rats; settings: rat, in vivo
# [12] = system: monkeys; settings: monkey, in vivo
# [13] = in vivo; settings: plasma
# [14] = Pharmacokinetics of 1-Deoxynorjirimycin; settings: is believed
smiles,measurement,setting,value
"OC[C@H]1CNC[C@@H](O)[C@@H]1O [IFG, (2R,3R,4R)-5-(hydroxymethyl)-piperidine-3,4-diol]",pharmacokinetic behavior,"[1]; after 7 days of oral administration, 25, 75 or 225 mg daily",linear with dose
same,Cmax,"[1]; oral, 25 mg",310 nM
same,Cmax,"[1]; oral, 150 mg",1700 nM
same,half-life,"[1]; oral, healthy subjects, multiple-dose study, SEM: 2 hr., read-out: plasma elimination half-life (converted)",~14 h
same,half-life,"[1]; oral, read-out: Half-life (converted)",14 h
same,Tmax,"[1]; oral, read-out: Tmax",3 h
same,Tmax,"[1]; healthy subjects, multiple-dose study, 7 days oral, SEM: 0.6 hr., read-out: Mean plasma levels (Tmax) peaked",~3.4 h
same,Daily dose that yields max rate of accumulation during Initial Enzyme Build-Up phase,[2]; Wild-type,≤75 mg
same,Max. rate of enzyme loss,[2]; Wild-type,~−3.5 Units/day
same,Max. rate of enzyme accumulation,"[2]; Wild-type, 1 unit = 1 nmole of 4-MU liberated per mg of total protein per hour",~7 Units/day
same,lowest daily dose that achieved the maximum rate of GCase accumulation over 7 days,[2]; healthy subjects,about 75 mg
same,maximum increase in GCase enzyme level in white blood cells,"[2]; healthy subjects, 7-day treatment",approximately 3.5 fold above baseline
same,IFG concentration range at which maximum chaperoning (Emax) occurs,[3],10 to 100 µM
same,safety and tolerability of repeated dosing,[4],generally safe and well tolerated
same,safety and tolerability of repeated dosing,[5],generally safe and well tolerated
same,Daily dose that yields max rate of accumulation during Initial Enzyme Build-Up phase,[6],≤150 to 300 mg
same,Max. rate of enzyme accumulation,[6],~0.35 Units/day
same,Max. rate of enzyme loss,[6],~−0.17 Units/day
same,GCase trafficking to the lysosome,[7]; fibroblasts of GD patients,increases GCase trafficking to the lysosome in fibroblasts of GD patients
same,GCase total cellular enzyme levels,[7]; in vitro,increases GCase total cellular enzyme levels in vitro
same,plasma levels of chitinase and IgG,[8],reduces plasma levels of chitinase and immunoglobulin G (IgG)
same,tissue GCase activity,[8],increases tissue GCase activity
same,time after which levels fall below the GCASE Ki value,"[9]; liver and plasma, single 600 mg/kg PO",48 h
same,time for all tissues to attain levels exceeding the GCase enhancement EC50,"[9]; single 600 mg/kg PO gavage, plasma, liver, spleen, brain",≤ 15 min
same,clearance from tissue,[9]; spleen and brain tissue,slower clearance
"OC[C@H]1NC[C@H](O)[C@@H](O)[C@@H]1O [1-Deoxynorjirimycin, (2R,3R,4R,5S)-2-(hydroxymethyl) piperidine-3,4,5-triol]",repeat doses (safe and well tolerated),[10]; for 2 weeks,up to 2 grams per day
same,severity of adverse events,[10]; patients receiving drug,mild or moderate in severity
same,single doses appearing safe and well tolerated,[10]; single doses,up to 600 mg
same,tolerability in short-term safety studies,[11],well tolerated
same,tolerability in short-term safety studies,[12],well tolerated
same,half-life,[13],4 to 8 h
same,oral bioavailability,[14],high oral bioavailability
